Assay results from PMC4604621, “Cytotoxicity, nitric oxide and acetylcholinesterase inhibitory activity of three limonoids isolated from Trichilia welwitschii (Meliaceae)” (Biological Research, 2015).
In brackets after ≈: the same amount, converted by molar mass. Like-named read-outs stand apart in the source and are kept apart here.

Columns and labels:
[1] = test system: nitric oxide production from LPS-activated macrophages; conditions: read-out: IC50 against nitric oxide production; cited from earlier work
[2] = MTT cytotoxicity assay on Vero cells; format: cell-based; conditions: monkey
Description: (§1) Cells lines including human monocytic THP-1, murine macrophage RAW 264.7 and the Vero monkey kidney cell lines were obtained from the American Type Culture Collection (Rockville, MD, USA). They were maintained in DMEM supplemented with 10 % fetal calf serum (FCS) and 1 % penicillin/streptomycin/fongizone (PSF) under standard cell culture conditions at 37 °C and 5 % CO2 in a humidified environment.
(§2) The cytotoxicity of compounds was determined by the 3-[4,5-dimethylthiazol-2-yl]-2,5-diphenyltetrazolium (MTT) assay as previously described. The selectivity index (SI) values were calculated by dividing cytotoxicity LC50 values of normal Vero cells by the LC50 of cancer cells in the same units.

human monocytic THP-1 = assay: MTT cytotoxicity assay on THP-1 cells; format: cell-based
Description: as §1, §2

[3] = test system: murine macrophage RAW 264.7; assay: MTT cytotoxicity assay on RAW 264.7 cells; format: cell-based; conditions: Mus musculus
Description: as §1, §2

RAW 264.7 macrophages = assay: Cell viability of LPS-activated RAW 264.7 macrophages (MTT); format: cell-based, murine; conditions: Fig. 1b, at the concentration leading to effective inhibition of NO production
Description: To determine whether the observed nitric oxide inhibition was not due to cytotoxic effects, MTT assay was also performed on the macrophage cells as previously described.

[4] = biological target: T1, acetylcholinesterase (AChE) enzyme from electric eels (Electrophorus electricus, UniProt O42275); assay: biochemical; conditions: for inhibition at 6.25 µg/mL / inhibition at 12.5 µg/mL / inhibition at 25 µg/mL / inhibition at 50 µg/mL: read-out: % AChE inhibition; for IC50: read-out: AChE inhibition IC50 (converted)
T1 construct: purchased Sigma (Germany) type VI-S lyophilized powder (catalogue number not given)
T1 sequence (O42275 24-633): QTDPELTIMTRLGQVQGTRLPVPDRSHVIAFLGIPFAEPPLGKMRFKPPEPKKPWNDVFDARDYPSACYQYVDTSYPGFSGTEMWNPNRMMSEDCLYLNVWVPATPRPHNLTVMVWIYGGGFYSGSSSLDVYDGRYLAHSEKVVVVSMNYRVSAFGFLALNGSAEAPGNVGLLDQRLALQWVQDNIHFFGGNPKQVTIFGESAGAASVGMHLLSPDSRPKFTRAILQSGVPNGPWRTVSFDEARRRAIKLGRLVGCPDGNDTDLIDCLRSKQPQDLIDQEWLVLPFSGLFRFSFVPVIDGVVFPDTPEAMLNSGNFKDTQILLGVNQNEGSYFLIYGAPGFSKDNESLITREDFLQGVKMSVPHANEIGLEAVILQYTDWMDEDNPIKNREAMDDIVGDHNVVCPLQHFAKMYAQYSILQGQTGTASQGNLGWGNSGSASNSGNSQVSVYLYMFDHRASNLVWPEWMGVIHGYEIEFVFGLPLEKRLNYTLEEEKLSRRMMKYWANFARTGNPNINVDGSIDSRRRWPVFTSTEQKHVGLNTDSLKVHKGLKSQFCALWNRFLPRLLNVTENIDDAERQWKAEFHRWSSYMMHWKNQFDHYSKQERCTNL
Description: Inhibition of acetylcholinesterase activity was determined using Ellman’s colorimetric method with slight modifications. […] Then, AChE (0.2 U/mL) was added to the wells and the absorbance was determined spectrophotometrically (BioTek Synergy microplate reader) at 405 nm. Distilled water was used as negative control. […] The IC50 values of samples leading to 50 % inhibition were calculated by plotting the percentage of inhibition against the concentrations.

[5] = test system: nitric oxide production in LPS-stimulated RAW 264.7 macrophages; assay: Nitric oxide production in LPS-activated RAW 264.7 macrophages (Griess reagent); format: cell-based, murine; conditions: 0.5 µg/mL compound, 1 µg/mL LPS, 24 h
Description: Fig. 1 Inhibitory activity of three limonoids isolated from Trichilia welwitschii on nitrix oxide production. The RAW 264.7 macrophages cells were seeded in 96 well-microtitre plates and were activated by incubation in medium containing 1 µg/mL LPS alone (control) or lipopolysaccharide with different concentrations of the samples dissolved in DMSO. Nitric oxide released from macrophages was determined by measuring the nitrite concentration in culture supernatant using the Griess reagent. The concentrations of nitrite were derived from regression analysis using serial dilutions of sodium nitrite as a standard. Percentage inhibition was calculated based on the ability of compounds to inhibit nitric oxide formation by cells compared with the control (cells in media without compounds), which was considered as 0 % inhibition.
The RAW 264.7 macrophages cells were seeded in 96 well-microtitre plates and were activated by incubation in medium containing 1 µg/mL LPS alone (control) or lipopolysaccharide with different concentrations of the samples dissolved in DMSO. […]
Nitric oxide released from macrophages was determined by measuring the nitrite concentration in culture supernatant using the Griess reagent. […] The absorbance of the resultant solutions was determined on a BioTek Synergy microplate reader after 10 min at 550 nm. […]

[6] = Vero kidney cells, Vero cells, MTT, read-out: Cytotoxicity LC50 Vero
[7] = THP-1, read-out: Cytotoxicity LC50 THP-1
[8] = RAW264.7, read-out: Cytotoxicity LC50 RAW 264.7
[9] = human, mouse, THP-1 and RAW 264.7 cells (range over the cell lines), range over the cell lines tested (Vero, THP-1, RAW 264.7), read-out: LC50 values (range over the cell lines)
[10] = RAW264.7, RAW 264.7 cells, MTT, read-out: Cytotoxicity LC50 RAW 264.7

Structure (SMILES)	IC50 [1] [µM]	CC50 [2, 6] [mg/L]	CC50 (human monocytic THP-1; [7]) [mg/L]	CC50 [3, 8] [mg/L]	Cytotoxicity against RAW 264.7 macrophages by MTT assay (RAW 264.7 macrophages)	inhibition at 6.25 µg/mL [4] [%]	inhibition at 12.5 µg/mL [4] [%]	inhibition at 25 µg/mL [4] [%]	inhibition at 50 µg/mL [4] [%]	IC50 [4] [µM]	Amount of nitric oxide released [5] [µM]	CC50 [2, 9] [mg/L]	CC50 [3, 10] [mg/L]	CC50 (human monocytic THP-1; THP-1 cells, MTT, read-out: Cytotoxicity LC50 THP-1) [mg/L]
CC[C@H](C)C(=O)O[C@H]1[C@@]23O[C@]4(O)[C@@](C)([C@@H](CC(=O)OC)C(C)(C)[C@H](OC(=O)C(C)C)[C@]14O)[C@H]2CC[C@]1(C)[C@H]3CC(=O)O[C@H]1c1ccoc1 [2-hydroxyxylorumphiin F]	24.5	–	–	–	–	–	–	–	–	–	–	–	–	–
C=C1[C@@]23O[C@@H]2C[C@@H](c2ccoc2)[C@]3(C)[C@@H](OC(=O)C(O)C(C)CC)[C@H](C(=O)O)[C@]1(C)[C@](C)(C1CC(=O)O[C@]1(C)CO)[C@H](CC(=O)OC)OC(C)=O (stereo partly drawn) [Compound 1, trichilia lactone D5]	–	89.2 ± 5 (≈ 124 µM)	81.2 ± 6.38 (≈ 113 µM)	23.6 ± 5.77 (≈ 32.8 µM)	slight toxic effect	28 ± 6.56	18 ± 8.89	71.7 ± 6.03	94.3 ± 8.15	26.6	–	–	–	–
C=C1[C@@]2(O)C(=O)C[C@@H](c3ccoc3)[C@]2(C)[C@@H](OC(=O)C(O)C(C)CC)[C@@H]2O[C@H]3CC(=O)O[C@]4(C)COC(=O)CC4[C@@]3(C)[C@]12C (stereo partly drawn) [Compound 2, rohituka 3]	–	85.2 ± 6.31 (≈ 139 µM)	81.2 ± 4.04 (≈ 132 µM)	65.7 ± 3.64 (≈ 107 µM)	–	14 ± 6	47.3 ± 2.08	67 ± 4.36	82.7 ± 7.04	55.6	2.97	–	–	–
C=C1[C@@]23O[C@@H]2C[C@@H](c2ccoc2)[C@]3(C)[C@@H](OC(=O)C(O)C(C)CC)[C@@H]2O[C@H]3CC(=O)O[C@]4(C)COC(=O)CC4[C@@]3(C)[C@]12C (stereo partly drawn) [Compound 3, dregeanin DM4]	–	75.8 ± 1.85 (≈ 127 µM)	84.5 ± 5.81 (≈ 141 µM)	61.9 ± 4.14 (≈ 103 µM)	–	30.3 ± 3.51	31.7 ± 5.2	70.7 ± 3.5	87 ± 8.74	76.3	2.93	–	–	–
COc1cccc2c1C(=O)c1c(O)c3c(c(O)c1C2=O)C[C@@](O)(C(=O)CO)C[C@@H]3O[C@H]1C[C@H](N)[C@H](O)[C@H](C)O1 [Doxorubicin]	–	9.35 ± 0.66 (≈ 17.2 µM)	–	–	–	–	–	–	–	–	–	1.06 to 9.35 (≈ 1.95 to 17.2 µM)	1.06 ± 0.65 (≈ 1.95 µM)	–
COc1ccc(C[C@H](N)C(=O)N[C@H]2[C@@H](O)[C@H](n3cnc4c(N(C)C)ncnc43)O[C@@H]2CO)cc1 [Puromycin, reference compound]	–	5.32 ± 0.9 (≈ 11.3 µM)	–	–	–	–	–	–	–	–	–	1.15 to 5.32 (≈ 2.44 to 11.3 µM)	1.15 ± 0.17 (≈ 2.44 µM)	0.4 ± 0.02 (≈ 0.848 µM)
CC[C@H](C)C(=O)O[C@H]1C(C)(C)[C@H](CC(=O)OC)[C@@]2(C)[C@H]3CC[C@]4(C)C(=CC(=O)O[C@H]4c4ccoc4)[C@]34O[C@@]2(O)[C@@]1(O)[C@H]4OC(=O)[C@@H](C)CC [xylorumphiin I]	31.3	–	–	–	–	–	–	–	–	–	–	–	–	–
